Source: patent US10780094B2, “Use of carbonic anhydrase inhibitors for treatment of neurological and psychiatric disorders” (New York University, priority 2016, dated 2020)

Tests used:
Format in all cases: cell-based, human
[1] = tested on: caspase 3/7 in glial cells; assay: Active caspase 3 staining and Caspase-Glo 3/7 activity after Aβ challenge; conditions: Aβ co-incubated with MTZ at both concentrations (100, 300 μM); 24 hours
Experimental: (§1) Caspase 9 and caspase 3/7 activation was measured by luminescent assays (Caspase-Glo 9 and caspase-Glo 3/7, Promega, Madison, Wis.), in cells treated with the Aβ peptides in DMEM without FBS. Briefly, 10,000 cells/well were plated in 96 wells plates and incubated for 24 hours with the freshly solubilized Aβ peptides. Caspase-Glo reagent was added to the cell cultures resulting in cell lysis, followed by caspase cleavage of the substrate and generation of a luminescent signal produced by the luciferase reaction. After 40 minutes incubation, the amount of caspase activity was evaluated in a plate-reading luminometer (Synergy HT Multi-Mode Microplate Reader, Biotek, Winooski, Vt.) as described in (Fossati et al., 2012b). To inhibit non-specific background activity, the proteasome inhibitor MG-132 was added to the Caspase-Glo reagent before the experiment as indicated by the manufacturer. In all cases results are expressed as fold-change compared to untreated control cells.
(§2) SHSY-5Y and Glioma cells were plated on chamber slides as above. Slides were pre-coated with Poly-D-Lysine 30 μg/ml for 2 hours for SHSY-5Y cells. […]

[2] = tested on: caspase 3/7 in neuronal SHSY-5Y cells; assay: as above; conditions: Aβ co-incubated with MTZ at both concentrations (100, 300 μM); 24 hours
Experimental: as §1, §2

[3] = tested on: Glioma cells; assay: Cellular ROS (CellROX); conditions: Aβ42 in the presence or absence of MTZ; 24 hours
Experimental: For the last 30 minutes, the cells were incubated in the experimental medium at 37° C. with 5 μM CellROX Deep Red (Life Technologies) and 1 μg/ml Hoechst Stain (Immunochemistry Technologies, Bloomington, Minn.), as described by the manufacturer, followed by washes. Fluorescence was measured using a FlexStation 3 Multi-Mode Microplate Reader (Molecular Devices, Sunnyvale, Calif.).

[4] = tested on: SH-SY5Y and D3 cells; assay: Aβ-induced cell death pathways (caspase 3 and 9 activation, CytC release, apoptosis)
Experimental: SH-SY5Y and D3 cells were plated on 15 mm optical borosilicate poly-L-lysine-coated sterile glass covers (ThermoFisher, Waltham, Mass., US) at a 70% confluence. After 24 hours, cells were treated with the peptides, the drugs or the different combinations of both of them, rinsed in PBS 1×, and fixed with 4% paraformaldehyde for 20 minutes. After that, the coverslips were washed once for 5 minute with PBS 1×, room temperature and twice for 5 minutes with cold PBS 1×. Cells were then permeabilized and blocked for 1 h with BSA 20 mg/mL+Triton 0.3% on PBS and incubated with the anti-active caspase-3 antibody, on PBS containing BSA 5 mg/mL, for 2 h. Next, cells were washed three times for 5 min each with PBS 1× and incubated with the secondary antibody (Alexa Fluor 488 anti-mouse antibody), at a 1:200 dilution in PBS containing BSA 5 mg/mL for an additional hour in the dark. Cells were then washed three times in the dark with 1 mL of PBS 1× and mounted on cover slips (ThermoFisher, Waltham, Mass., US). After mounting, cells were imaged, using a Nikon Eclipse Ti inverted microscope with a 20× objective (Nikon, Chiyoda. Tokyo, Japan).
Cells were plated at a confluence of 10.000 cells per well in 96-wells microplate luminescence microtiter (ThermoFisher, Waltham, Mass., US). The day after, cells were treated with the peptides and/or drugs for the experimental times. After that, caspase-Glo 9 assay was performed, following the protocol provided from the manufacturer. Luminescence was measured using a FlexStation 3 Multi-Mode Microplate Reader (Molecular devices, Sunnyvalem Calif., US).
20.000 cells per well were plated on 24-wells plates. The day after, cells were treated with peptides and/or drugs, following the experimental conditions.

Row | SMILES | active-caspase 3 staining and activity of caspases 3/7 [1] | active-caspase 3 staining and activity of caspases 3/7 [2] | levels of cellular ROS (CellROX) [3] | caspase activation and CytC release induced by Aβ ([4]; ATZ) | effective concentration lower than that of MTZ ([4]; ATZ versus MTZ) | nuclear chromatin condensation indicative of apoptosis ([4]; Aβ challenge, FIGS. 16A-16B)
1 | CC(=O)/N=c1/sc(S(N)(=O)=O)nn1C [MTZ, methazolamide] | greatly suppressed | greatly suppressed | did not significantly change | – | – | –
2 | CC(=O)Nc1nnc(S(N)(=O)=O)s1 [ATZ, acetazolamide] | – | – | – | completely reverting | 10 times | prevented
